{"source": "patent US20090226907A1", "about": "“ASSAY FOR DETECTION OF TELOMERASE ACTIVITY” (Sienna Cancer Diagnostics Limited, priority 2005, published 2009)", "target": "T1, telomerase (Homo sapiens, UniProt O14746)", "T1 construct": "showing the effect of TBT oligonucleotide length in HEK293T cell lysates; endogenous in cells; host or cells: HEK293T cell lysate (CHAPS lysis buffer)", "T1 sequence (O14746 whole entry)": "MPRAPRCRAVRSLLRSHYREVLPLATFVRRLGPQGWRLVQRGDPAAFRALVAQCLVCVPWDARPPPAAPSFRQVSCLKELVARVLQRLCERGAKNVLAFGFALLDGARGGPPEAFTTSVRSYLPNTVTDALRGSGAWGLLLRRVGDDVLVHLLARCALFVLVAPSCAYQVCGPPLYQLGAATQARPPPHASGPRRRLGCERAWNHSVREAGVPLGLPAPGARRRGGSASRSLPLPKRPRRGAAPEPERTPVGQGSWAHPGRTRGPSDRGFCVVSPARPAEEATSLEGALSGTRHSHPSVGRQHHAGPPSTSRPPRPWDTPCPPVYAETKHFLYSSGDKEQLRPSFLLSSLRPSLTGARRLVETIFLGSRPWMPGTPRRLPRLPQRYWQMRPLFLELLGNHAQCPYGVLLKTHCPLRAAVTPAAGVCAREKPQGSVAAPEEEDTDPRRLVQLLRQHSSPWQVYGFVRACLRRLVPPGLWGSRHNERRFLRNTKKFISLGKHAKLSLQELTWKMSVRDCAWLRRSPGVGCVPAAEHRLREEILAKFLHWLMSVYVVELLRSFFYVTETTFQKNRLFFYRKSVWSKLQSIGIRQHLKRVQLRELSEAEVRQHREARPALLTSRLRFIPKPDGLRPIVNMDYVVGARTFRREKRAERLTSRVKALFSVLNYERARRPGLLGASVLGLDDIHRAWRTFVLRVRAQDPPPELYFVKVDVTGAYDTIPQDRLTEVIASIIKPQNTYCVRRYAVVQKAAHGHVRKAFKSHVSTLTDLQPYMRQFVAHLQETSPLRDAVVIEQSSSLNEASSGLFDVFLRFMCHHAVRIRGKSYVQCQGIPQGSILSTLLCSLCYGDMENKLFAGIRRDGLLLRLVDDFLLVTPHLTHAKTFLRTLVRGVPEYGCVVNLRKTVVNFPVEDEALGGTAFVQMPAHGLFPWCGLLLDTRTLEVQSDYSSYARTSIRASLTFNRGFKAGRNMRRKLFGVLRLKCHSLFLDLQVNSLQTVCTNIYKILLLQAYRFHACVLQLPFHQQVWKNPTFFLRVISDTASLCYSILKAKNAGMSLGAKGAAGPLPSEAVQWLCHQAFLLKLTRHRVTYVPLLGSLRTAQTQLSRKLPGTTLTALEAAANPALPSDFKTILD", "T1 sequence (O60832 whole entry partner)": "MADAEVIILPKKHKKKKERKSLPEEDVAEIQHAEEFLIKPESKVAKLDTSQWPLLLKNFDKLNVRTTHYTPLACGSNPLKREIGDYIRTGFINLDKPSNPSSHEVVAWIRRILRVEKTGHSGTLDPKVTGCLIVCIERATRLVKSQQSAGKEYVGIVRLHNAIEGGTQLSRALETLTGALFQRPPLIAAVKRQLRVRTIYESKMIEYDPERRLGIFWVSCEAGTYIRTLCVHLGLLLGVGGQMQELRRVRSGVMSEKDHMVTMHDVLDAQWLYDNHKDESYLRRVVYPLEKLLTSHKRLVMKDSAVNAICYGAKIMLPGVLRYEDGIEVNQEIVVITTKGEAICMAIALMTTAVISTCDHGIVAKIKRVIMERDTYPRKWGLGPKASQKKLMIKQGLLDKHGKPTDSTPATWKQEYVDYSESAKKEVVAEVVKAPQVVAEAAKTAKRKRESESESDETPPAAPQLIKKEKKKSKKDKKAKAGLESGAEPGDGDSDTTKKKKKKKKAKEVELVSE", "T1 sequence (Q9NPE3 whole entry partner)": "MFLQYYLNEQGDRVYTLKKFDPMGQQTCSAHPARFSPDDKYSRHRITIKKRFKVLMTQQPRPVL", "T1 sequence (Q9NX24 whole entry partner)": "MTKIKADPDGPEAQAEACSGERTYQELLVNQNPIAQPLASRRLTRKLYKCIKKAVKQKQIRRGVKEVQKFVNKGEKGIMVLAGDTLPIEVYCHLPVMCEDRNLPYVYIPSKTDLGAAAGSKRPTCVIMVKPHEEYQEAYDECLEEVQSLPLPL", "T1 sequence (Q9NY12 whole entry partner)": "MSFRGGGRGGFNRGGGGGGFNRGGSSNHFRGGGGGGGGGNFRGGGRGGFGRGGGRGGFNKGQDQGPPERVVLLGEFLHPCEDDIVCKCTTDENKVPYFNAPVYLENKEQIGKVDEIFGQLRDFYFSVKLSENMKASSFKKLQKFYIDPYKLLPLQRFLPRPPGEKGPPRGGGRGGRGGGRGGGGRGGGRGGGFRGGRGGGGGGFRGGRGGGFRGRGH", "T1 sequence (Q9BUR4 whole entry partner)": "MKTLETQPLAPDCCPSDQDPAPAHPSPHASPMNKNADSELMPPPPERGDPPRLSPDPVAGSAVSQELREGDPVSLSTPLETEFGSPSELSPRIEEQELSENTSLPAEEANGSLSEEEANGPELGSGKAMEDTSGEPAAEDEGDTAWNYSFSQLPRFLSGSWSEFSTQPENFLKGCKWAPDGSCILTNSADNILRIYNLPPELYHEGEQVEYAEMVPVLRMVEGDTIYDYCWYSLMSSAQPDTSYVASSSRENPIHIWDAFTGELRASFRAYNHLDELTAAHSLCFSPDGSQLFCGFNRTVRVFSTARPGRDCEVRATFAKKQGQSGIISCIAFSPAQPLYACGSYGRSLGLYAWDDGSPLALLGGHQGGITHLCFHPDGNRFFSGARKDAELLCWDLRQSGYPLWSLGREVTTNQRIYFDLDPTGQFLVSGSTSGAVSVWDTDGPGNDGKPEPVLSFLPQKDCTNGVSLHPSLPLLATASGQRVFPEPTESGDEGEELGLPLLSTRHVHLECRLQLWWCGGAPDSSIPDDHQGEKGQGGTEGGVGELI", "test": "TBT telomerase assay: effect of oligonucleotide length in HEK293T cell lysates", "assay_type": "biochemical", "conditions": "luminescence, compared with short (0.5 repeat) and 2.5 repeat versions, FIG. 16", "from_the_text": "FIG. 16 is a graphical representation showing the effect of TBT oligonucleotide length in HEK293T cell lysates. […]", "note": "{SH-C6} = thiol hexyl linker", "data": [{"substance": "5′SH-(CH2)6-TTTTTTAATCCGTCGAGCAGAGTTAGGGTTAGGGTTAGG GTTAGGGTTAG (DNA TTTTTTAATCCGTCGAGCAGAGTTAGGGTTAGGGTTAGGGTTAGGGTTAG; DNA, 5' {SH-C6}, backbone and methylation of C not given here; bead-immobilized telomerase substrate oligo; listed as Homo sapiens) [longer version]", "values": [{"measurement": "absolute signal relative to the background signal (no telomerase extract)", "result": "better absolute signal relative to the background signal"}]}]}
